Patent US4977268A, “Boron dipeptide compounds” (priority 1988, dated 1990)
Values after ≈ are worked out from the molar mass of the structure shown.

What was measured:
[1] = tested on: L-1210 lymphoid leukemia; experiment: Cytotoxic assay, L-1210 lymphoid leukemia cell line; assay type: cell-based; conditions: dosage required to kill 50 percent of the tumor cells in cell culture
Description: (§2) Boron dipeptide analogs were investigated for potential antineoplastic activity in the Ehrlich ascites carcinoma in vivo screen in CF-1 mice and in cytotoxic assays involving the L-1210 lymphoid leukemia and P-388 lymphocytic leukemia cell lines. The ED50 is the effective dosage required to kill 50 percent of the tumor cells in the leukemia cell culture.

[2] = tested on: P-388 lymphocytic leukemia; experiment: Cytotoxic assay, P-388 lymphocytic leukemia cell line; assay type: cell-based; conditions: dosage required to kill 50 percent of the tumor cells in cell culture
Description: as §2

[3] = tested on: Ehrlich ascites carcinoma; experiment: Ehrlich ascites carcinoma in vivo screen; set-up: concentration or dose not given beside the values; conditions: CF-1 mice
[4] = tested on: serum cholesterol levels; experiment: Antihyperlipidemic screen, serum cholesterol; assay type: in vivo; conditions: male CF1 mice
Description: (§1) Compounds to be tested were suspended in 1% aqueous carboxymethylcellulose and administered to male CF1 mice (25 g) intraperitoneally for 16d. On days 9 and 16, blood was obtained by tail vein bleeding, and the serum was separated by centrifugation for three minutes. The serum cholesterol levels were determined by a modification of the Liebermann-Burchard reaction [A. T. Ness, J. V. Pastewka, and A. C. Peacock, Clin. Chim. Acta, 10, 229 (1964)]. Serum triglyceride levels were determined with a commercial kit [Fisher, Hycel Triglyceride Test Kit] for a different group of animal bled on day 16.

[5] = tested on: Serum triglyceride levels; experiment: Antihyperlipidemic screen, serum triglyceride; assay type: in vivo; conditions: male CF1 mice
Description: as §1

Row | Structure (SMILES) | ED50 Cytotoxicity L-1210 Lymphoid Leukemia [1] [µg/mL] | ED50 Cytotoxicity P-388 Lymphocytic Leukemia [2] [µg/mL] | In Vivo % Inhibition of Ehrlich Ascites Carcinoma Growth [3] [%] | % Inhibition Serum Cholesterol Day 9 ([4]; 8 mg/kg intraperitoneally) [%] | % Inhibition Serum Cholesterol Day 16 ([4]; 8 mg/kg intraperitoneally) [%] | % Inhibition Serum Triglyceride Day 16 ([5]; 8 mg/kg intraperitoneally) [%] | % Inhibition Serum Cholesterol Day 9 ([4]; 20 mg/kg intraperitoneally) [%] | % Inhibition Serum Cholesterol Day 16 ([4]; 20 mg/kg intraperitoneally) [%] | % Inhibition Serum Triglyceride Day 16 ([5]; 20 mg/kg intraperitoneally) [%]
1 | O=c1[nH]cc(F)c(=O)[nH]1 [5-Fluorouracil, reference compound] | 1.94 (≈ 14.9 µM) | 3.72 (≈ 28.6 µM) |  |  |  |  |  |  | 
2 | Sc1ncnc2nc[nH]c12 [6-Mercaptopurine, reference compound] | 2.43 (≈ 16 µM) | 4.10 (≈ 26.9 µM) | 99.6 |  |  |  |  |  | 
3 | Nc1ccn([C@@H]2O[C@H](CO)[C@@H](O)[C@@H]2O)c(=O)n1 [Ara C, reference compound] | 2.76 (≈ 11.3 µM) | 4.06 (≈ 16.7 µM) |  |  |  |  |  |  | 
4 | NC(=O)CNC(=O)[BH2-][NH3+] [Compound 1, N-[(ammonia-boryl)carbonyl]glycine amide] | 1.40 (≈ 10.7 µM) | 7.62 (≈ 58.2 µM) | 67 | 21 | 42 | 53 |  |  | 
5 | NC(=O)C(CO)NC(=O)[BH2-][NH3+] (stereo not drawn) [Compound 2, N-[(Ammoniaboryl)carbonyl]serine amide] | 10.6 (≈ 65.9 µM) | 8.73 (≈ 54.2 µM) | 52 |  |  |  |  |  | 
6 | CSCCC(NC(=O)[BH2-][NH3+])C(N)=O (stereo not drawn) [Compound 3, N-[(Ammonia-boryl)carbonyl] methionine amide] | 4.17 (≈ 20.3 µM) | 8.57 (≈ 41.8 µM) | 75 |  |  |  |  |  | 
7 | COC(=O)CNC(=O)[BH2-][N+](C)(C)C [Compound 7, N-[(Trimethylamine-boryl)carbonyl]glycine methyl ester] | 7.00 (≈ 37.2 µM) | 12.11 (≈ 64.4 µM) | 89 | 21 | 42 | 59 | 31 | 52 | 30
8 | COC(=O)[C@H](CO)NC(=O)[BH2-][N+](C)(C)C [Compound 8, N-[(Trimethylamine-boryl)carbonyl]-L-serine methyl ester] | 1.98 (≈ 9.08 µM) | 9.21 (≈ 42.2 µM) | 61 |  |  |  |  |  | 
9 | COC(=O)[C@H](CCSC)NC(=O)[BH2-][N+](C)(C)C [Compound 9, N-[(Trimethylamine-boryl)carbonyl]-L-methionine methyl ester] | 6.62 (≈ 25.2 µM) | 12.86 (≈ 49 µM) | 41 |  |  |  | 55 | 55 | 23
10 | COC(=O)[C@H](Cc1ccccc1)NC(=O)[BH2-][N+](C)(C)C [Compound 13, N-[(Trimethylamine-boryl)carbonyl]-L-phenylalanine methyl ester] | 10.84 (≈ 39 µM) | 8.89 (≈ 32 µM) | 94 |  |  |  | 25 | 48 | 33
11 | COC(=O)[C@H](C)NC(=O)[BH2-][N+](C)(C)C [Compound 16, N-[(Trimethylamine-boryl)carbonyl]-L-alanine methyl ester] |  |  | 83 |  |  |  |  |  | 
12 | N[C@@H](Cc1ccc(N(CCCl)CCCl)cc1)C(=O)O [Melphalan, reference compound] |  |  | 99 |  |  |  |  |  | 
